Reference: ChEMBL document CHEMBL5665443, “Enzyme Inhibitor Single Concentration assay results for EUbOPEN Chemogenomics Library” (2024)

Columns and labels:
[1] = molecular target: T1, Endonuclease III-like protein 1 (Homo sapiens) (UniProt P78549);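 note: enzyme assay tracking NTHL1 cutting and release of a quenched double-stranded DNA oligo substrate, read as fluorescence at 594 nm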
T1 sequence (whole entry): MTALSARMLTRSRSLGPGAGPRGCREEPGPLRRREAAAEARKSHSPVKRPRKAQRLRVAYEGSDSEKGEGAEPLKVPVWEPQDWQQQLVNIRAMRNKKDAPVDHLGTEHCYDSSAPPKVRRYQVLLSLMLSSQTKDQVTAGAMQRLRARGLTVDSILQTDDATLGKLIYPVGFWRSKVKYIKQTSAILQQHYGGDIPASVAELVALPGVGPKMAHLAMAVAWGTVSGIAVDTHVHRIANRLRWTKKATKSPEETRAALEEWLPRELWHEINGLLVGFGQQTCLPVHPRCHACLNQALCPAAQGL

[2] = molecular target: Endonuclease 8-like 1 (Homo sapiens) (UniProt Q96FI4); details: Hit No;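 note: fluorescence at 594 nm from quenched duplex DNA oligonucleotides released by NEIL1 cleavage and strand separation, reported as reduction of this enzyme activity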
Endonuclease 8-like 1 (Homo sapiens), sequence (Q96FI4 whole entry): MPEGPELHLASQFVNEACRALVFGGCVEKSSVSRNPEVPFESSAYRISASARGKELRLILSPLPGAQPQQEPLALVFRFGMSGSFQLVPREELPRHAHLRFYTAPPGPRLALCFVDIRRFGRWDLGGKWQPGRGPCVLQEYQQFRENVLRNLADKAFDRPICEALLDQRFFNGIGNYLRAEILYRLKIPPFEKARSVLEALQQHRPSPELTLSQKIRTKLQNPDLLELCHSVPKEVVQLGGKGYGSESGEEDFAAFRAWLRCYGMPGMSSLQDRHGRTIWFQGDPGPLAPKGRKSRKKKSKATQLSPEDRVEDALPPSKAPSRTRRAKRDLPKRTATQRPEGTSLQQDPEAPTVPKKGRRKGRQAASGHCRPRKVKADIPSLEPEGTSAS

[3] = molecular target: T2, Adenine DNA glycosylase (Homo sapiens) (UniProt Q9UIF7); details: Hit No;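 note: human MUTYH activity read as 594 nm fluorescence from cleavage and release of a quenched DNA duplex, coupled with APE1 for strand incision, lower signal meaning inhibition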
T2 sequence (whole entry): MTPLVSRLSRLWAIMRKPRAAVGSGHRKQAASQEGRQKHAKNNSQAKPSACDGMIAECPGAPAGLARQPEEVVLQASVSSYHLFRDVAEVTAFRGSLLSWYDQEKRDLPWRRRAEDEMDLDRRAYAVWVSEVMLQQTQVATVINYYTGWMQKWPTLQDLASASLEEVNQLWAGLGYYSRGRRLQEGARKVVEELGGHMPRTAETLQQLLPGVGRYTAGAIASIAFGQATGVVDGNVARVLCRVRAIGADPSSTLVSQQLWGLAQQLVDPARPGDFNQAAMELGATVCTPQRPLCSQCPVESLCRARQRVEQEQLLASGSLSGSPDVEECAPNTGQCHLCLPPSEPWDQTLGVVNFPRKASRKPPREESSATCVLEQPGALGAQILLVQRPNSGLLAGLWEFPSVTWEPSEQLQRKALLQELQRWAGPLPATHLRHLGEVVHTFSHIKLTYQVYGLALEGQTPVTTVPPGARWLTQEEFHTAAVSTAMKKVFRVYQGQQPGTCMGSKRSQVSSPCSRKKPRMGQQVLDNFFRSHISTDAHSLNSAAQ

[4] = molecular target: G/T mismatch-specific thymine DNA glycosylase (Homo sapiens) (UniProt Q13569); details: Hit No;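 note: human TDG cleavage of quenched duplex DNA oligonucleotides coupled to APE1, strand release read as fluorescence at 594 nm, inhibition of TDG activity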
G/T mismatch-specific thymine DNA glycosylase (Homo sapiens), sequence (Q13569 whole entry): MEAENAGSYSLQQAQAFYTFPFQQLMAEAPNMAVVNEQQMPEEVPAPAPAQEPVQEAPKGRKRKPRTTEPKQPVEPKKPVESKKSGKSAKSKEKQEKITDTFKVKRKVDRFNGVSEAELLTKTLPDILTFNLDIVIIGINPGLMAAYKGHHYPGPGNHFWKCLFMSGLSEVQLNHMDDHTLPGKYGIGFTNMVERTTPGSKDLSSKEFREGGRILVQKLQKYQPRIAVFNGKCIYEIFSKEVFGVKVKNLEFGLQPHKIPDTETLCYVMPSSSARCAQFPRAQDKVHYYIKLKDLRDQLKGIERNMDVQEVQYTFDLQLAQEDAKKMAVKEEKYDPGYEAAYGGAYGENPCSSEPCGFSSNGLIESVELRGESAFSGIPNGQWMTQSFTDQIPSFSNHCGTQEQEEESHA

[5] = molecular target: Uracil-DNA glycosylase (Homo sapiens) (UniProt P13051); details: Hit No;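 note: UNG excision on a quenched double-stranded DNA oligo probe, with APE1 added for strand incision and turnover, read as fluorescence at 594 nm as strands separate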
Uracil-DNA glycosylase (Homo sapiens), sequence (P13051 whole entry): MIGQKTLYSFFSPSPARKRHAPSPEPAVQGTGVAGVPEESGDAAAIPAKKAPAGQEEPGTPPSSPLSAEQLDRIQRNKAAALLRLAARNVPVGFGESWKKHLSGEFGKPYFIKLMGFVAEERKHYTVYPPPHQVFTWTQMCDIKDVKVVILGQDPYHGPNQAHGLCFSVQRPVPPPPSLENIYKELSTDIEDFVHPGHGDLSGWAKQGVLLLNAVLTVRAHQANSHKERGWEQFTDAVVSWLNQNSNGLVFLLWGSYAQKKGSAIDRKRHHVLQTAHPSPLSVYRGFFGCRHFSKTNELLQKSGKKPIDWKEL

[6] = molecular target: T3, Endonuclease 8-like 2 (Homo sapiens) (UniProt Q969S2);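 note: fluorescence at 594 nm reports NEIL2 cutting and release of a quenched double-stranded DNA oligo substrate, reduced signal read as inhibition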
T3 sequence (whole entry): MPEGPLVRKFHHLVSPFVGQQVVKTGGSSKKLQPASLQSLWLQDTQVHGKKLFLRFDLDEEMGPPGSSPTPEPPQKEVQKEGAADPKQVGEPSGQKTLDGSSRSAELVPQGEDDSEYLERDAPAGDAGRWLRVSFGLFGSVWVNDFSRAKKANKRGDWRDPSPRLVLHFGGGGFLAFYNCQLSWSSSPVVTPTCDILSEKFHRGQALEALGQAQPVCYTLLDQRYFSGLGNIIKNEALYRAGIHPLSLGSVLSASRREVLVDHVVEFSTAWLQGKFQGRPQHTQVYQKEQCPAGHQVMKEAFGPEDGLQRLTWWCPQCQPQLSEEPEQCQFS

[7] = molecular target: N-glycosylase/DNA lyase (Homo sapiens) (UniProt O15527); details: Hit No;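 note: OGG1 cleavage of a quenched duplex DNA oligonucleotide, coupled to APE1 for strand incision, read as fluorescence at 594 nm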
N-glycosylase/DNA lyase (Homo sapiens), sequence (O15527 whole entry): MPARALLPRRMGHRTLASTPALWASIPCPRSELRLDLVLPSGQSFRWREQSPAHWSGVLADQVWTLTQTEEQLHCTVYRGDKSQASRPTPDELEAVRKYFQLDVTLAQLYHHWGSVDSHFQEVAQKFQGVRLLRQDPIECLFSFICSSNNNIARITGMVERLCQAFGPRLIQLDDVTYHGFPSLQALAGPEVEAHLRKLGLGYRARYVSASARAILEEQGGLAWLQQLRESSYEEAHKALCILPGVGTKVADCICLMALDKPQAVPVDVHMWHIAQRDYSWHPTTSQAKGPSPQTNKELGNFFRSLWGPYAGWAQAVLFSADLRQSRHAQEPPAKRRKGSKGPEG

[8] = molecular target: T4, Single-strand selective monofunctional uracil DNA glycosylase (Homo sapiens) (UniProt Q53HV7); details: Hit No;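 note: enzymatic SMUG1 assay coupled with APE1, reading fluorescence at 594 nm released when a quenched double-stranded DNA oligonucleotide substrate is cleaved and separated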
T4 sequence (whole entry): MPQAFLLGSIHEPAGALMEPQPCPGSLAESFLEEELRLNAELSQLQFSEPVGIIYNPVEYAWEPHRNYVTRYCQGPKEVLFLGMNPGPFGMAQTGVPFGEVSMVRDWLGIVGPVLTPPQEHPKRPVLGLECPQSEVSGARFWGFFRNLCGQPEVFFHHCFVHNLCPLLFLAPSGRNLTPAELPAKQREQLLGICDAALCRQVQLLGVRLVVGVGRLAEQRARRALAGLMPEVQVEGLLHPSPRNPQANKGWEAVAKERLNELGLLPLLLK

[9] = molecular target: Methyl-CpG-binding domain protein 4 (Homo sapiens) (UniProt O95243); details: Hit No;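 note: MBD4 activity read as fluorescence at 594 nm from cleavage and release of a quenched duplex DNA oligonucleotide, with APE1 coupled to incise the strand and raise turnover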
Methyl-CpG-binding domain protein 4 (Homo sapiens), sequence (O95243 whole entry, the tested form may be a part): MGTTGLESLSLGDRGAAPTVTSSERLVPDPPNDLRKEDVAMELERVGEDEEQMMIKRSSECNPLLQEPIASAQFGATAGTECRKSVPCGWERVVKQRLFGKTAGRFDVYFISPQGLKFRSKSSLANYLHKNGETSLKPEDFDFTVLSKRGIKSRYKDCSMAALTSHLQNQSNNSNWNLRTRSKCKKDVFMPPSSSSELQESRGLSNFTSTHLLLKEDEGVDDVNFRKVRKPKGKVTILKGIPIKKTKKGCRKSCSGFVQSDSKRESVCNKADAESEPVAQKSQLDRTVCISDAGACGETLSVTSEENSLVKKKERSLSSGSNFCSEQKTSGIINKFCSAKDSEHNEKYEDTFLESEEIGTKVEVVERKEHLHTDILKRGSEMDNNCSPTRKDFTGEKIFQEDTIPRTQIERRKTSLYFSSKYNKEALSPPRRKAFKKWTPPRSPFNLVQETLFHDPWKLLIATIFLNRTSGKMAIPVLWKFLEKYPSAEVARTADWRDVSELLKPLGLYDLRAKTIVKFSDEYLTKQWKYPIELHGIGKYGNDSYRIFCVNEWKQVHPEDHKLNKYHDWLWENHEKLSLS

[10] = Compound Concentration 10.0 uM, Hit No
[11] = Compound Concentration 10.0 uM, Hit Yes
[12] = Compound Concentration 1.0 uM, Hit No

Row | SMILES | inhibition [1, 10] [%] | inhibition ([2]; Compound Concentration 10.0 uM) [%] | inhibition ([3]; Compound Concentration 10.0 uM) [%] | inhibition ([4]; Compound Concentration 10.0 uM) [%] | inhibition ([5]; Compound Concentration 10.0 uM) [%] | inhibition [6, 10] [%] | inhibition ([7]; Compound Concentration 10.0 uM) [%] | inhibition ([8]; Compound Concentration 10.0 uM) [%] | inhibition ([9]; Compound Concentration 10.0 uM) [%] | inhibition [1, 11] [%] | inhibition [1, 12] [%] | inhibition ([2]; Compound Concentration 1.0 uM) [%] | inhibition ([3]; Compound Concentration 1.0 uM) [%] | inhibition ([4]; Compound Concentration 1.0 uM) [%] | inhibition ([5]; Compound Concentration 1.0 uM) [%] | inhibition [6, 12] [%] | inhibition ([7]; Compound Concentration 1.0 uM) [%] | inhibition ([8]; Compound Concentration 1.0 uM) [%] | inhibition ([9]; Compound Concentration 1.0 uM) [%] | inhibition [6, 11] [%]
1 | Cc1cn([C@@H](C)CC#N)c(=O)c2cc(Cn3nc(C(F)F)cc3Cl)nn12 | 5.29 | -0.442 | 0.387 | 99.3 | 2.85 | 0.0213 | 9.38 | 19.8 | 56.2 | – | – | – | – | – | – | – | – | – | – | –
2 | CCCCN1CCC(COC(=O)c2cc(Cl)c(N)c3c2OCCO3)CC1 | -3.21 | 5.28 | -7.02 | 14.3 | -2.45 | 2.51 | -1.24 | 8.49 | 4.39 | – | – | – | – | – | – | – | – | – | – | –
3 | CO[C@H]1/C=C/O[C@@]2(C)Oc3c(C)c(O)c4c(O)c(c(/C=N/N5CCN(C)CC5)c(O)c4c3C2=O)NC(=O)/C(C)=C\C=C\[C@H](C)[C@H](O)[C@@H](C)[C@@H](O)[C@@H](C)[C@H](OC(C)=O)[C@@H]1C | – | -4.08 | 34.5 | 64 | 20 | -0.744 | 23.7 | 26.1 | 74.6 | 27.6 | – | – | – | – | – | – | – | – | – | –
4 | CCCCN(Cc1ccccc1)C(=O)c1ccc(S(=O)(=O)Nc2ccccc2)cc1 | 2.88 | -9.37 | 28.5 | 61.1 | 2.05 | -10 | 15.6 | 26.3 | -4.89 | – | – | – | – | – | – | – | – | – | – | –
5 | Cc1ccc(C(=O)Nc2cccc(C(F)(F)F)c2)cc1Nc1nc(-c2cccnc2)nc2c1cnn2C | – | – | – | – | – | – | – | – | – | – | 0.785 | 6.48 | 7.35 | 48.5 | 6.36 | 3.74 | 5.38 | 23.8 | 14.1 | –
6 | Oc1ccc2c3c1O[C@H]1c4[nH]c5c(c4C[C@@]4(O)[C@@H](C2)N(CC2CC2)CC[C@]314)C[C@@]1(O)[C@H]2Cc3ccc(O)c4c3[C@@]1(CCN2CC1CC1)[C@H]5O4 | 5.59 | -5.39 | -2.67 | 10.6 | 1.76 | -3.73 | 7.55 | -7.06 | -5.37 | – | – | – | – | – | – | – | – | – | – | –
7 | Cc1cc(-n2nc(Cc3cc(F)cc(C(F)(F)F)c3)nc2C)ccc1C(N)=O | 7.26 | -6.95 | 0.715 | 97.3 | 2.38 | -0.234 | -5.77 | 18.8 | 59.6 | – | – | – | – | – | – | – | – | – | – | –
8 | CCN(CC)CCCCNc1ncc2cc(-c3cc(OC)cc(OC)c3)c(NC(=O)NC(C)(C)C)nc2n1 | – | – | – | – | – | – | – | – | – | – | -4.79 | 6.87 | 14.1 | 36.3 | 4.12 | 3.2 | -1.83 | 21.2 | 12 | –
9 | O=C(NNS(=O)(=O)c1ccccc1F)c1cc(F)cc(-c2ccccn2)c1 | 11.9 | 0.316 | 3.72 | 49.9 | 6.14 | 3.34 | 3.57 | 15.4 | 80.8 | – | – | – | – | – | – | – | – | – | – | –
10 | CCC(=N\O)/C(C)=C/c1ccc(F)c(C)c1 | -5.23 | -2.41 | -0.87 | 41.4 | 3.87 | 0.276 | 16.2 | 22.6 | 64.7 | – | – | – | – | – | – | – | – | – | – | –
11 | C=C1/C(=C\C=C2/CCC[C@]3(C)[C@@H]([C@H](C)CCCC(C)(C)O)CC[C@@H]23)C[C@@H](O)C[C@@H]1O | -8.52 | -6.8 | -4.04 | 75.3 | -0.617 | -1.25 | 10.5 | 0.349 | 57 | – | – | – | – | – | – | – | – | – | – | –

The remaining lines, values ahead:

Row | inhibition [1, 10] [%] | inhibition ([2]; Compound Concentration 10.0 uM) [%] | inhibition ([3]; Compound Concentration 10.0 uM) [%] | inhibition ([4]; Compound Concentration 10.0 uM) [%] | inhibition ([5]; Compound Concentration 10.0 uM) [%] | inhibition [6, 10] [%] | inhibition ([7]; Compound Concentration 10.0 uM) [%] | inhibition ([8]; Compound Concentration 10.0 uM) [%] | inhibition ([9]; Compound Concentration 10.0 uM) [%] | inhibition [1, 11] [%] | inhibition [1, 12] [%] | inhibition ([2]; Compound Concentration 1.0 uM) [%] | inhibition ([3]; Compound Concentration 1.0 uM) [%] | inhibition ([4]; Compound Concentration 1.0 uM) [%] | inhibition ([5]; Compound Concentration 1.0 uM) [%] | inhibition [6, 12] [%] | inhibition ([7]; Compound Concentration 1.0 uM) [%] | inhibition ([8]; Compound Concentration 1.0 uM) [%] | inhibition ([9]; Compound Concentration 1.0 uM) [%] | inhibition [6, 11] [%] | SMILES
12 | 17.9 | 10.1 | -1.51 | 4.22 | 3.87 | – | -9.97 | -5.21 | -7.62 | – | – | – | – | – | – | – | – | – | – | 50.6 | COc1cc2nc(N3CCN(C(=O)COc4c(OC)cccc4C(C)C)CC3)nc(N)c2cc1OC
13 | -7.2 | -6.35 | -4.04 | 46 | 4.65 | -4.32 | 44.6 | 23.9 | 63.4 | – | – | – | – | – | – | – | – | – | – | – | CCCCN(CCCC)C(=O)CN1C[C@@H](c2cc(OC)c3c(c2)OCO3)[C@H](C(=O)O)[C@H]1CC(C)(C)CCC
14 | – | – | – | – | – | – | – | – | – | – | 4.63 | -3.77 | -4.69 | 45.5 | 3.9 | 7.16 | 5.54 | 17.8 | 63.1 | – | COc1cccc(-c2nccc3c2CN(c2ccccc2)C3=O)c1
15 | 8.57 | -5.29 | -0.105 | 47.9 | 3.87 | 4.61 | -4.05 | 12.4 | 54.2 | – | – | – | – | – | – | – | – | – | – | – | CC(C)c1ccc(CC(=O)N2CCC[C@@H](c3cccc(OC(C)(C)C(=O)O)c3)C2)cc1
16 | – | – | – | – | – | – | – | – | – | – | 7.17 | -0.0491 | -1.13 | 41.5 | 0.321 | -2.03 | -1.52 | 10.6 | 27.9 | – | CS(=O)(=O)N1CCCC(NC(=O)[C@H](CCC2CCCCC2)NC(=O)c2ccc(CNC(=O)c3cnc4ccccn34)cc2)C1 (some centres not stated)
17 | -1.95 | 3.19 | 22 | 54 | 5.08 | -0.744 | 31.5 | 12.3 | 69.2 | – | – | – | – | – | – | – | – | – | – | – | Cc1c(N2CCCC2)nc2ccc(Br)cc2c1C(=O)NC[C@H](CCC(=O)O)c1ccccc1Cl
18 | -7.86 | -1.8 | 16.7 | 41.3 | 3.28 | 0.276 | -2.82 | 15 | 54.3 | – | – | – | – | – | – | – | – | – | – | – | Cc1c(N2CCNCC2)nc2ccc(Br)cc2c1C(=O)NC[C@H](CCC(=O)O)c1ccccc1Cl
19 | 9.89 | 1.07 | 32.7 | 60.5 | 6.5 | -4.06 | 0.918 | 18.7 | 60.8 | – | 4.27 | – | 33.1 | 36.3 | 0.265 | – | -1.57 | 14.8 | -4.56 | – | CN1CCN(C(=O)C(C)(C)c2ccc(C(=O)Nc3cn4cc(-c5ccncc5)ccc4n3)cc2)CC1
20 | -5.89 | -3.62 | -1.52 | 59.1 | -1.09 | 6.65 | 31 | 6.73 | 67.8 | – | – | – | – | – | – | – | – | – | – | – | COCCCS(=O)(=O)c1cc(C)c(-c2ccc(F)c3c2CC[C@H]3Oc2ccc3c(c2)OC[C@H]3CC(=O)O)c(C)c1
